This passage reports IC50 results from patent US10189841B2, “Purinones as ubiquitin-specific protease 1 inhibitors” (Forma Therapeutics, Inc., priority 2015, dated 2019).

Usually IC50 stands for the concentration that inhibits the measured activity by half. Low readings indicate inhibition by little substance, high ones a need for much substance.

The target of the assay is USP1 (construct USP1 (I-785, GG670, 671AA)/UAF1 (I-677)-Flag) (Homo sapiens (Human), UniProt O94782, G670A/G671A). Description: Ubiquitin-Rhodamine 110 assay for USP1 activity. To be noted: USP1/UAF1 25 pM, Ub-Rh110 25 nM, 30 min preincubation. The assay is classed as biochemical. The essentials: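 Ub-Rh110 (25 nM, ≪Km) cleavage read at ex 485/em 535 in Tris pH 8.0, CaCl2, GSH, Prionex, Triton X-100. The screen used 10 µM compound, 100 pM USP1/UAF1 and 45 min at RT.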
Chain of USP1 (construct USP1 (I-785, GG670, 671AA)/UAF1 (I-677)-Flag) (O94782 whole entry G670A/G671A): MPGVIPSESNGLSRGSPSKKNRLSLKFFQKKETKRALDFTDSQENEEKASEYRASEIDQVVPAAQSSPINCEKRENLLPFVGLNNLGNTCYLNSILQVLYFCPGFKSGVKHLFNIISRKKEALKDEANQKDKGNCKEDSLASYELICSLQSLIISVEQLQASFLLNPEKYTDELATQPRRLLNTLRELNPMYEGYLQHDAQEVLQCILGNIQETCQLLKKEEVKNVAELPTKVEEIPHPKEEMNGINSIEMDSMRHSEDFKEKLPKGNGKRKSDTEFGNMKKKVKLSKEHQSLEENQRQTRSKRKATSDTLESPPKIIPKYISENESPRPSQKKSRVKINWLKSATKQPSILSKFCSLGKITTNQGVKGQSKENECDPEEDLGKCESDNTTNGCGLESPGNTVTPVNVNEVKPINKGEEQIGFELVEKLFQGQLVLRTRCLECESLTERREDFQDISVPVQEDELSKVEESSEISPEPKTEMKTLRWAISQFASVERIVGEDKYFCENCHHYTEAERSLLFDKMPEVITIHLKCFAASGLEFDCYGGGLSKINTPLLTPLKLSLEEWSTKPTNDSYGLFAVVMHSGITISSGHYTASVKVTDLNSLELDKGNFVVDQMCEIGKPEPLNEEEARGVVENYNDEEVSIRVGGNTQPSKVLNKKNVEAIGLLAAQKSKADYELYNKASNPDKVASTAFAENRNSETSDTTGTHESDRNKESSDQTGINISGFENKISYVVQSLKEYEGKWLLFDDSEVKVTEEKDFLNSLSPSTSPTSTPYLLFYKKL
Chain of USP1 (construct USP1 (I-785, GG670, 671AA)/UAF1 (I-677)-Flag) (Q8TAF3 whole entry partner): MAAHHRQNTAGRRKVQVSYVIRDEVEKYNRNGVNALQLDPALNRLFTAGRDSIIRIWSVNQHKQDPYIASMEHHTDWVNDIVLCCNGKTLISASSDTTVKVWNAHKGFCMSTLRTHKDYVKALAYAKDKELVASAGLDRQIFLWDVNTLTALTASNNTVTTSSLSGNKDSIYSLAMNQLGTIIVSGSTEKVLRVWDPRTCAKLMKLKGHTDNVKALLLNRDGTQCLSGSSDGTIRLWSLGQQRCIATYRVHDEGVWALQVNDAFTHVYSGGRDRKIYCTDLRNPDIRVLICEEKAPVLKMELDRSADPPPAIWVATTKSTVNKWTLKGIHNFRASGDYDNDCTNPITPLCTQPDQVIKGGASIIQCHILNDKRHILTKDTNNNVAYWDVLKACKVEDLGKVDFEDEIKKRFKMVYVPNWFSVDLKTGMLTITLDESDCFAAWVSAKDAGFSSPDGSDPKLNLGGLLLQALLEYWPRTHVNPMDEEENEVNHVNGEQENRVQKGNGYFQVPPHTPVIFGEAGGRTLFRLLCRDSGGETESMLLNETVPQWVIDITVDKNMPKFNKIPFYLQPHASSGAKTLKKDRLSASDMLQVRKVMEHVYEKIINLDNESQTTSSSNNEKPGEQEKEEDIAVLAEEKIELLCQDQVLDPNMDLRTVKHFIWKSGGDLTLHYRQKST
In turn, `CN1CCN(c2ncccc2-c2ncc3[nH]c(=O)n(Cc4ccc(-c5nc(C(F)(F)F)cn5C)cc4)c3n2)CC1` [Compound I-328, 9-(4-(1-methyl-4-(trifluoromethyl)-1H-imidazol-2-yl)benzyl)-2-(2-(4-methylpiperazin-1-yl)pyridin-3-yl)-7,9-dihydro-8H-purin-8-one] showed an IC50 of 200 to 2000 nM.

On to `CC(C)(O)c1ccccc1-c1ncc2[nH]c(=O)n(Cc3ccc(-n4cccn4)cc3)c2n1` [Compound I-528, 9-(4-(1H-Pyrazol-1-yl)benzyl)-2-(2-(2-hydroxypropan-2-yl)phenyl)-7,9-dihydro-8H-purin-8-one], for which the IC50 was in the range of 200 to 2000 nM. With `Cn1cc(C(F)(F)F)nc1-c1ccc(Cn2c(=O)[nH]c3cnc(-c4cccnc4C4CC4)nc32)cc1` [Compound I-30, 2-(2-cyclopropylpyridin-3-yl)-9-(4-(1-methyl-4-(trifluoromethyl)-1H-imidazol-2-yl)benzyl)-7,9-dihydro-8H-purin-8-one] the figure was less than 50 nM; with `Cc1cn(C)nc1-c1ccc(Cn2c(=O)[nH]c3cnc(-c4cccnc4C(C)C)nc32)cc1` [Compound I-47, 9-(4-(1,4-dimethyl-1H-pyrazol-3-yl)benzyl)-2-(2-isopropylpyridin-3-yl)-7,9-dihydro-8H-purin-8-one], 200 to 2000 nM. With `Cn1cc(C(F)(F)F)nc1-c1ccc(Cn2c(=O)[nH]c3cnc(-c4cccnc4NC4CCC4)nc32)cc1` [Compound I-316, 2-(2-(cyclobutylamino)pyridin-3-yl)-9-(4-(1-methyl-4-(trifluoromethyl)-1H-imidazol-2-yl)benzyl)-7,9-dihydro-8H-purin-8-one] the figure was 50 to 200 nM. In the case of `CC(C)c1cccnc1-c1ncc2c(n1)n(Cc1ccc(-n3cccn3)cc1)c(=O)n2C` [Compound I-517, 9-(4-(1H-Pyrazol-1-yl)benzyl)-2-(3-isopropylpyridin-2-yl)-7-methyl-7,9-dihydro-8H-purin-8-one], the IC50 is greater than 2000 nM. The figure for `CC(C)c1c(F)cccc1-c1ncc2[nH]c(=O)n(Cc3ccc(-n4ccc(C5CCNCC5)n4)cc3)c2n1` [Compound I-434, 2-(3-fluoro-2-isopropylphenyl)-9-(4-(3-(piperidin-4-yl)-1H-pyrazol-1-yl)benzyl)-7,9-dihydro-8H-purin-8-one] is 50 to 200 nM; for `CCCOc1ncccc1-c1ncc2[nH]c(=O)n(Cc3ccc(-c4nc(C(F)(F)F)cn4C)cc3)c2n1` [Compound I-413, 9-(4-(1-methyl-4-(trifluoromethyl)-1H-imidazol-2-yl)benzyl)-2-(2-propoxypyridin-3-yl)-7,9-dihydro-8H-purin-8-one] it is less than 50 nM; for `O=c1[nH]c2cnc(-c3cccnc3C3CC3)nc2n1Cc1ccc(-c2nc(C(F)(F)F)cn2C2COC2)cc1` [Compound I-33, 2-(2-cyclopropylpyridin-3-yl)-9-(4-(1-(oxetan-3-yl)-4-(trifluoromethyl)-1H-imidazol-2-yl)benzyl)-7,9-dihydro-8H-purin-8-one] it is less than 50 nM. In turn, `CC(C)c1ncccc1-c1ncc2c(n1)n(C1(c3ccc(-c4nc(C(F)(F)F)cn4C)cc3)CC1)c(=O)n2C` [Compound I-108, 2-(2-isopropylpyridin-3-yl)-7-methyl-9-(1-(4-(1-methyl-4-(trifluoromethyl)-1H-imidazol-2-yl)phenyl)cyclopropyl)-7,9-dihydro-8H-purin-8-one] had an IC50 of less than 50 nM.

`Cn1cc(C(F)(F)F)nc1-c1ccc(Cn2c(=O)[nH]c3cnc(-c4ccccc4C(C)(C)O)nc32)cc1` [Compound I-525, 2-(2-(2-hydroxypropan-2-yl)phenyl)-9-(4-(1-methyl-4-(trifluoromethyl)-1H-imidazol-2-yl)benzyl)-7,9-dihydro-8H-purin-8-one] gave an IC50 of less than 50 nM. The figure for `CCc1ncccc1-c1ncc2c(n1)n(Cc1ccc(-c3nc(C(F)(F)F)cn3C)cc1)c(=O)n2C` [Compound I-61, 2-(2-ethylpyridin-3-yl)-7-methyl-9-(4-(1-methyl-4-(trifluoromethyl)-1H-imidazol-2-yl)benzyl)-7,9-dihydro-8H-purin-8-one] is 50 to 200 nM; for `Cn1cc(C(F)(F)F)nc1-c1ccc(Cn2c(=O)[nH]c3cnc(-c4cccnc4N4CCOCC4)nc32)cc1` [Compound I-333, 9-(4-(1-methyl-4-(trifluoromethyl)-1H-imidazol-2-yl)benzyl)-2-(2-morpholinopyridin-3-yl)-7,9-dihydro-8H-purin-8-one] it is 50 to 200 nM; for `CC(C)NC(=O)N(C)c1ccc(Cn2c(=O)n(C)c3cnc(-c4ccccc4C(C)C)nc32)cc1` [Compound I-484, 3-isopropyl-1-(4-((2-(2-isopropylphenyl)-7-methyl-8-oxo-7,8-dihydro-9H-purin-9-yl)methyl)phenyl)-1-methylurea] it is 200 to 2000 nM.

In turn, `CC(C)c1ccccc1-c1ncc2[nH]c(=O)n(Cc3ccc(C(=O)N4CCC[C@@H]4C)cc3)c2n1` [Compound I-395, (S)-2-(2-isopropylphenyl)-9-(4-(2-methylpyrrolidine-1-carbonyl)benzyl)-7,9-dihydro-8H-purin-8-one] returned an IC50 of less than 50 nM. The figure for `CC(C)c1ccccc1-c1ncc2c(n1)n(Cc1ccc(OC3CCC3)cc1)c(=O)n2C` [Compound I-237, 9-(4-cyclobutoxybenzyl)-2-(2-isopropylphenyl)-7-methyl-7,9-dihydro-8H-purin-8-one] is 50 to 200 nM; for `Cc1cn(C)c(-c2ccc(Cn3c(=O)n(C)c4cnc(-c5ccccc5C(C)C)nc43)cc2)n1` [Compound I-258, 9-(4-(1,4-dimethyl-1H-imidazol-2-yl)benzyl)-2-(2-isopropylphenyl)-7-methyl-7,9-dihydro-8H-purin-8-one] it is less than 50 nM; for `Cn1cc(C(F)(F)F)nc1-c1ccc(Cn2c(=O)n(C3CC3)c3cnc(-c4ccccc4C4CC4)nc32)cc1` [Compound I-100, 7-cyclopropyl-2-(2-cyclopropylphenyl)-9-(4-(1-methyl-4-(trifluoromethyl)-1H-imidazol-2-yl)benzyl)-7,9-dihydro-8H-purin-8-one] it is less than 50 nM. `CC(C)c1ncccc1-c1ncc2c(n1)n(Cc1ccc(-c3nc(C4CC4)cn3C)cc1)c(=O)n2C` [Compound I-515, 9-(4-(4-cyclopropyl-1-methyl-1H-imidazol-2-yl)benzyl)-2-(2-isopropylpyridin-3-yl)-7-methyl-7,9-dihydro-8H-purin-8-one] yielded an IC50 of 50 to 200 nM.

`Cn1cc(C(F)(F)F)nc1-c1ccc(Cn2c(=O)[nH]c3cnc(-c4cccnc4N4CC(C(F)(F)F)C4)nc32)cc1` [Compound I-337, 9-(4-(1-methyl-4-(trifluoromethyl)-1H-imidazol-2-yl)benzyl)-2-(2-(3-(trifluoromethyl)azetidin-1-yl)pyridin-3-yl)-7,9-dihydro-8H-purin-8-one] gave a half-inhibitory concentration (IC50) of less than 50 nM. The figure for `CC(C)c1ccccc1-c1ncc2c(n1)n(Cc1ccc(-c3ccc(CCN(C)C)cc3)cc1)c(=O)n2C` [Compound I-262, 9-((4′-(2-(dimethylamino)ethyl)-[1,1′-biphenyl]-4-yl)methyl)-2-(2-isopropylphenyl)-7-methyl-7,9-dihydro-8H-purin-8-one] is 50 to 200 nM. The figure for `CC(C)c1cnccc1-c1ncc2c(n1)n(Cc1ccc(-n3cccn3)cc1)c(=O)n2C` [Compound I-516, 9-(4-(1H-Pyrazol-1-yl)benzyl)-2-(3-isopropylpyridin-4-yl)-7-methyl-7,9-dihydro-8H-purin-8-one] is greater than 2000 nM.
